Assay results published in patent US20020065225A1, “Methods of determining altered NDPK functions and the diagnosis of cystic fibrosis” (priority 1999, published 2002).

Legend:
[1] = test system: Anx I; assay: Nature of the phospho-linkage on ovine [32P]Anx I; type: biochemical; conditions: data not shown
Method: Previously, annexins have been reported, to be phosphorylated on serine and tyrosine residues within the N-terminus by PKC and EGF receptor kinase, respectively^18 but acid hydrolysis (6 N HCl at 105° C., 2 h) of ovine [^32P]Anx I. (labelled for 5 min) removed>95% of the radioactivity from p37 (Anx I) (data not shown). Further analysis confirmed that this phospho-linkage was not on serine, threonine or tyrosine residues because it was acid labile (FIG. 5e, lanes 1 and 3), base stable (FIG. 5e, lane 2) and inhabitable following pre-incubation with diethylpyrocarbamate (modifies histidine residues, data not shown). […] To our knowledge, this is the first report in annexins. […] Histidine phosphorylation may regulate the proposed functions of the core—cation channel permeation^20 and/or membrane fusion^6,8.
As described previously^19. In order to determine the nature of the phosphate linkage on [^32-P]-annexin I, a membrane fraction was labelled with γ[^32P] GTP or γ[^32P] ATP for 5 min at 37° C. The reaction was terminated with 5x Laemmli sample buffer. Phosphorylated protein (10 μg) was then incubated at 30° C. for 10 min in reaction mixtures containing phosphorylation buffer alone, 0.1 N HCl (pH 1), 0.1 N NaOH (pH 13) or 0.8 M hydroxylamine-0.1 M acetate (pH 5.2). […]

[2] = test system: p37 (Anx I); conditions: cited from earlier work
[3] = test system: Anx I; assay: Anx I phosphorylation in murine tracheal epithelium membrane and cytosol with ATP+GDP; type: biochemical, mouse
Description: Cyclic AMP controls both the membrane aggregating and the cation channel properties of Anx I via a proposed cAMP binding site^20. Because cAMP-dependent fluid secretion^22 and vesicle trafficking^2,3,22 are both disordered in CF airway and annexins share significant homology with the region of CFTR (amino acids 500-529) bearing the common disease mutation^7, we speculated that annexins may be involved in CF. […] We observed an absence of a 37 kDa phosphoprotein in plasma membranes from the airway of a CF mouse model, Cftr^tm1cam, which expresses no CFTR (FIG. 6a, quantitation FIG. 6e). We confirmed the identity of murine p37 as Anx I by immunoprecipitating pre-phosphorylated [^32P]p37 from wild type membranes using antibodies against Anx I (FIG. 5c). […] Because Anx I is a membrane-associated protein which shuttles between membrane and cytosol^26, we studied Anx I phosphorylation in cytosol from wild-type and Cftr^tm1Cam. In the absence of GDP and in contrast to the membrane, we found no differences in Anx I phosphorylation between wild-type and Cftr^tm1Cam cytosol (FIG. 6b; quantitation f). We confirmed the identity of cytosolic p37 as Anx I by immunoprecipitating pre-phosphorylated [^32P]p37 as described above (data not shown). […] It is possible that the excess protein results from a compensatory increase in synthesis to overcome a disruption of function. Excess Anx I protein is consistent with the elevated plasma concentrations of the calcium-dependent annexin binding proteins (S100A8 and A9 or CF antigen) in both CF carriers and patients^27. S100 proteins form obligate dimers^6 which bring together the N termini of different Anx I monomers to promote membrane-membrane fusion.
Swiss mice (wild-type) (6-10 weeks old) and mutant Cftr^tm1Cam mice^12 (4-12 weeks old) were used in this study. […]
As described previously^15. […] Pre-stained molecular weight markers were used to avoid staining and destaining of gels prior to imaging and quantification. The incorporation of ^32PO4 into individual protein bands was detected using electronic autoradiography (Canberra-Packard Instant Imager).

[4] = test system: NDPK; assay: Peptide-affinity column binding of human nasal membrane proteins, eluate labelled with [32P]ATP; conditions: wild-type human nasal epithelium membrane proteins, eluate slot blots exposed to [32P]ATP
Method: (§1) We speculated that this part of CFTR would associate with protein(s) from the chloride-sensitive phosphorylation cascade. We constructed peptides corresponding to the CFTR region encompassing position 508 of human CFTR. Membrane proteins from wild-type human nasal epithelium were incubated with either of two peptides corresponding to the wild-type or the ΔF508 mutant form of CFTR (KENIIFGVSYDEYR or KENIIGVSYDEYR, respectively) linked to an affinity matrix (^18). […] In order to generate sufficient material to characterise the bound protein(s), this experiment was repeated using the equivalent ovine wild-type CFTR peptide (KDNIIFGVSYDEYR) and membrane proteins from ovine tracheal epithelia (^18) Proteins eluted from this peptide column were phosphorylated with γ[^32P]ATP and separated by SDS-PAGE. […] In contrast, the failure of membrane-delimited UTP production in CF does provide an additional rationale for the administration of UTP in this disease.
18. Human nasal epithetium: Apical membrane proteins from human nasal epithelium were solubilised at 4° C. (10 mM KOH, 0.1% Tween), dialysed against PBS-Tween containing protease inhibitors (3 h) and spun at 150 000 g for 1 h. The supernatant was then re-circulated over affinity supports containing either synthetic peptide KENIIFGVSYDEYR or KENIIGVSYDEYR, corresponding to the F508 region of wild-type or […] mutant CFTR, respectively. The columns were washed with PBS-Tween (0.1%) and eluted with 1M KI. Fractions (40×1 ml) were slot blotted onto nitrocellulose under vacuum. The blots were washed in buffer A (10 mM MOPS pH 7.9, 1 mM MgCl2, 0.05% Triton X-100, 1 mM ATP) for 10 min and subsequently labelled with 5 nM γ[^32P]ATP (specific activity 222 TBq/mmol) in buffer A (1 h at room temperature). The blots were finally washed with PBS-Tween (0.1%) for 30 min (6 buffer changes) and visualised using electronic autoradiography. Sheep tracheal epithelia. The pelleted membranes from sheep tracheal epithelia were solubilised with 0.1% glucopyranoside in 50 mM HEPES pH 7.4 on ice for 1 h and centrifuged at 100 000×g for 30 min. […]

[5] = test system: annexin I; assay: Inhibition of annexin I phosphorylation in a membrane preparation; type: biochemical
Method: Following pre-incubation with N^6-monobutyryladenosine 3′:5′ cyclic monophosphate (N^6-mbcAMP) (0-1 mM) at 4° C. for 30 min, a membrane preparation was phosphorylated with γ[^32P] ATP at 37° C. for 5 min.
As described previously^15. Phosphorylation and Electronic Autoradiography - Briefly, proteins were phosphorylated with either 37 kBq γ[^32P] ATP or GTP (final nucleotide concentration, 16 nM) in 10 mM MOPS pH 7.9 containing 5 mM DTT. The reaction was terminated by adding 5x Laemmli sample buffer (Laemmli (1970) Nature 227, 680-685) and the proteins separated by SDS-PAGE using 12.5% polyacrylamide gels. Pre-stained molecular weight markers were used to avoid staining and destaining of gels prior to imaging and quantification. The incorporation of ^32PO4 into individual protein bands was detected using electronic autoradiography (Canberra-Packard Instant Imager).

[6] = test system: NDPK; assay: Ovine CFTR peptide affinity column with ovine tracheal epithelial membrane proteins; type: binding, sheep; conditions: for Western blot of eluate with antibodies specific to NDPK: eluate from ovine CFTR peptide column; for phosphorylated species in eluate of peptide column (SDS-PAGE, electronic autoradiography): ovine tracheal membrane proteins, eluate phosphorylated with γ[32P]ATP
Method: as §1
18. Human nasal epithetium: Apical membrane proteins from human nasal epithelium were solubilised at 4° C. (10 mM KOH, 0.1% Tween), dialysed against PBS-Tween containing protease inhibitors (3 h) and spun at 150 000 g for 1 h. The supernatant was then re-circulated over affinity supports containing either synthetic peptide KENIIFGVSYDEYR or KENIIGVSYDEYR, corresponding to the F508 region of wild-type or […] mutant CFTR, respectively. The columns were washed with PBS-Tween (0.1%) and eluted with 1M KI. Fractions (40×1 ml) were slot blotted onto nitrocellulose under vacuum. The blots were washed in buffer A (10 mM MOPS pH 7.9, 1 mM MgCl2, 0.05% Triton X-100, 1 mM ATP) for 10 min and subsequently labelled with 5 nM γ[^32P]ATP (specific activity 222 TBq/mmol) in buffer A (1 h at room temperature). The blots were finally washed with PBS-Tween (0.1%) for 30 min (6 buffer changes) and visualised using electronic autoradiography. Sheep tracheal epithelia. The pelleted membranes from sheep tracheal epithelia were solubilised with 0.1% glucopyranoside in 50 mM HEPES pH 7.4 on ice for 1 h and centrifuged at 100 000×g for 30 min. The supernatant was applied to a peptide affinity column (KDNIIFGVSYDEYRC, corresponding to the F508 region of ovine wild-type CFTR, coupled to epoxy activated POROS 20 media using the additional terminal cysteine residue). The column was washed with load buffer containing 1M NaCl, followed by load buffer only (100 column volumes or stable OD280˜0.015). Bound proteins were eluted with 50 mM glycine-NaOH pH 11 containing 0.1% glucopyranoside and immediately neutralised with 1M Tris-HCl pH 8.0.

## CCOC(=O)OC(=O)OCC [diethylpyrocarbamate]
[1]
  effect of pre-incubation on Anx I phospho-linkage: inhabitable

## Nc1nc2c(ncn2[C@@H]2O[C@H](COP(=O)(O)OP(=O)(O)O)[C@@H](O)[C@H]2O)c(=O)[nH]1 [GDP]
[2]; ATP (50 nM)+GDP (500 nM), 37° C., 5 min (ref 15)
  enhancement of phosphorylation of the 37 kDa protein: 20 fold
[2]; previously found (ref 15)
  effect on p37 (Anx I) phosphorylation: enhanced
[3]; Cftr^tm1Cam cytosol, GDP added to γ[32P]ATP
  effect on Anx I phosphorylation, Cftr^tm1Cam cytosol: partial restoration of Anx I phosphorylation
[3]; Cftr^tm1Cam membranes, ATP+GDP
  effect on histidine phosphorylation of Anx I, Cftr^tm1Cam membranes: failed to either restore or enhance
[3]; wild type murine membranes, γ[32P]ATP+GDP
  effect on Anx I phosphorylation, wild type membranes: enhancement was also observed

## KENIIGVSYDEYR [synthetic peptide corresponding to the F508 region of ΔF508 mutant human CFTR]
[4]
  phosphorylatable protein bound by and eluted from peptide-affinity column: No phosphorylation was observed

## Nc1ncnc2c1ncn2[C@@H]1O[C@@H]2COP(=O)(O)O[C@H]2[C@H]1O [cyclic AMP]
[5]; observed whilst characterising NDPK
  inhibition of p37 phosphorylation: inhibiton of p^37 phosphorylation

## KDNIIFGVSYDEYR [equivalent ovine wild-type CFTR peptide; coupled to the column via an additional terminal cysteine]
[6]
  Western blot of eluate with antibodies specific to NDPK: detected a 21 kDa protein, indicating the presence of NDPK
  phosphorylated species in eluate of peptide column (SDS-PAGE, electronic autoradiography): a 19/21 kDa doublet was the sole phosphorylated species in the eluate
[6]; listed as ovine CFTR peptide
  Western blot of eluate with antibodies specific to NDPK: detected a 21 kDa protein
  phosphorylated species in eluate of peptide column (SDS-PAGE, electronic autoradiography): showed a 19/21 kDa phosphoprotein

## KENIIFGVSYDEYR [synthetic peptide corresponding to the F508 region of wild-type human CFTR]
[4]
  phosphorylatable protein bound by and eluted from peptide-affinity column: bound protein(s) that could be phosphorylated
[4]; listed as wild-type peptide
  phosphorylatable protein bound by and eluted from peptide-affinity column: a phosphoprotein was observed in fraction 22

## CCCC(=O)Nc1ncnc2c1ncn2[C@@H]1O[C@@H]2COP(=O)(O)O[C@H]2[C@H]1O [N^6-mbcAMP, N^6-monobutyryladenosine 3′:5′ cyclic monophosphate]
[5]; pre-incubation 0-1 mM, 4° C., 30 min, γ[32P]ATP 37° C., 5 min
  concentration of maximal inhibition of (histidine) phosphorylation of annexin I: 1 mM
